Experimental data published in patent US6440935B1, “Inhibition of eucaryotic pathogens and neoplasms and stimulation of fibroblasts and lymphocytes with lytic peptides” (priority 1987, dated 2002).
Where two headings read alike, the source gives them in different places. Residues, ends and D or L forms follow the SMILES beside them. No end group written: not given here.

What was measured:
[1] = test system: T. cruzi intracellular amastigotes in Vero cells; assay: In vitro effect on T. cruzi intracellular amastigotes in Vero cells; assay type: cell-based, Trypanosoma cruzi; settings: one hour period, relative to no peptide
Method: Vero cells at 10^5 cells/ml in MEM-FBS were mixed with Trypanosoma Cruzi in the trypomastigote stage at 10^5 cells/ml in the same medium at a 1:1 ratio of Vero cells to trypomastigotes. The mixture of Vero cells and trypomastigotes was cultured at 37° C. in a 5% CO2 atmosphere in microscope slide chambers. At 24 hours, cecropin SB-37 was added to the chambers, except for a set of controls, at a final concentration of 100 μM. […]

[2] = EL-4 cell viability by trypan blue exclusion; assay type: cell-based; settings: one hour, 95% at 0 μM
Method: EL-4 lymphoma cells were suspended in RPMI 1640 at 5,000,000/ml with 500,000 cells per well. Various concentrations of cecropin SB-37 and Shiva 1 were added and the wells incubated at 37° C. in a 5% CO2 atmosphere for one hour. Viability was determined by microscopic observation for trypan blue exclusion.

[3] = EL-4 cytotoxicity by chromium release; assay type: cell-based; settings: for cytotoxicity at 100 µM: read-out: Percent Cytotoxicity
Method: (§1) The EL-4 cells were then incubated for 30 minutes in the presence of various peptides at different concentrations. Cytotoxicity was taken as a percentage of chromium released (measured in the culture supernatant) relative to the chromium released by EL-4 cells lysed by detergent.
(§2) Similar chromium release data were obtained using the same procedure with a 100 μM concentration of peptide, but with EL-4 cell concentrations of 2×10^6, 10^6, and 5×10^5 cells in 0.5 ml medium.
(§3) The chromium release data was also obtained by using the supernatant from unlabeled EL-4 cells cultured for 30 minutes in the presence of 100 μM peptide as medium for […] EL-4 cultured as described above. The percent cytotoxicity calculated as described above was 20.16 for cecropin SB-37, 19.73 for *cecropin SB-37, 41.96 for Shiva 1, and 106.67 for melittin.

EL-4 cells = assay: EL-4 cytotoxicity by chromium release; assay type: cell-based; settings: 30 minutes, 10^6 EL-4 cells
Method: as §1, §2, §3

mammary carcinoma = assay: In vivo effect on murine mammary carcinoma; parameters: species or system BALB/c mouse; settings: 1.76 mg (88 mg/kg) daily, three days, injected directly into the carcinoma
Method: One BALB/c mouse was given daily injections of 1.76 mg (88 mg/kg) Shiva 1 in PBS for three consecutive days as described in the foregoing examples.

[4] = test system: Plasmodium falciparum in human red blood cells; settings: for 3H-Hypoxanthine Uptake: 24 hours
[5] = S. intermedius 19930 viability in lytic peptide/lysozyme; settings: Viability (%), lysozyme at ten times
Brucella abortus [6] = assay type: in vivo, BALB/C mice; settings: 0.176 mg/day for 4 days from day 12 post infection; sacrificed day 16; control 8.15 × 10^3
Brucella abortus [7] = assay type: cell-based; settings: 50 μM
Saccharomyces cerevisiae = assay: Effect of lytic peptides on S. cerevisiae (plate count); settings: 1 hour at 37° C., PBS pH 6.8, 500 at 0 μM
E. coli E/2/64 = assay: Lysozyme/cecropin synergism against E. coli (plate growth)
[8] = test system: Pseudomonas syringae pv. tabaci; assay: Plant pathogen LD50 in cecropin SB-37/lysozyme; assay type: cell-based; settings: incubation at 30° C.
[9] = test system: Erwinia caratovora subsp. carotova; assay: Plant pathogen LD50 in cecropin SB-37/lysozyme; assay type: cell-based; settings: incubation at 30° C.
[10] = test system: Xanthomonas campestris pv. campestris; assay: Plant pathogen LD50 in cecropin SB-37/lysozyme; assay type: cell-based; settings: incubation at 30° C.
eucaryotes = assay: Lytic activity, general statements of the description; settings: general statement, no test described

CC[C@H](C)[C@H](NC(=O)CNC(=O)[C@H](CCC(N)=O)NC(=O)[C@H](CCCCN)NC(=O)[C@@H](NC(=O)[C@H](CCC(N)=O)NC(=O)[C@H](CCCCN)NC(=O)CNC(=O)[C@@H](NC(=O)[C@H](CCCNC(=N)N)NC(=O)[C@H](CC(=O)O)NC(=O)[C@@H](NC(=O)[C@H](CCCNC(=N)N)NC(=O)[C@H](CCCNC(=N)N)NC(=O)[C@H](Cc1ccccc1)NC(=O)[C@H](CC(C)C)NC(=O)[C@H](CCCNC(=N)N)NC(=O)[C@H](Cc1c[nH]c2ccccc12)NC(=O)[C@H](CCCNC(=N)N)NC(=O)[C@@H]1CCCN1C(=O)[C@@H](N)CCSC)[C@@H](C)CC)C(C)C)[C@@H](C)CC)C(=O)N[C@@H](CC(C)C)C(=O)N[C@@H](CCCNC(=N)N)C(=O)N[C@@H](C)C(=O)NCC(=O)N1CCC[C@H]1C(=O)N[C@@H](C)C(=O)N[C@H](C(=O)N[C@@H](C)C(=O)N[C@@H](CC(C)C)C(=O)N[C@H](C(=O)NCC(=O)N[C@@H](CC(=O)O)C(=O)N[C@@H](C)C(=O)N[C@@H](CCCNC(=N)N)C(=O)N[C@@H](C)C(=O)N[C@H](C(=O)NCC(N)=O)C(C)C)C(C)C)[C@@H](C)CC [Shiva 1] (H-MPRWRLFRRIDRVGKQIKQGILRAGPAIALVGDARAVG-NH2)
LD50 (concentration for 50% reduction in number of infected Vero cells) [1]: about 9 μM | viability ([2]; 10 μM): 85% | viability ([2]; 25 μM): 60% | viability ([2]; 50 μM): 50% | viability ([2]; 100 μM): 10% | cytotoxicity at 100 µM ([3]; 2 × 10^6 cells per 0.5 ml): 84.9% | cytotoxicity at 100 µM ([3]; 5 × 10^5 cells per 0.5 ml): 98.7% | cytotoxicity at 100 µM ([3]; 10^6 cells per 0.5 ml): 89.2% | cytotoxicity ([3]; supernatant from unlabeled EL-4 cells cultured 30 minutes with 100 μM peptide used as medium for labeled EL-4, read-out: percent cytotoxicity): 42% | Percent Cytotoxicity (chromium release vs detergent-lysed cells) (EL-4 cells; 10 μM): 0.37% | Percent Cytotoxicity (chromium release vs detergent-lysed cells) (EL-4 cells; 25 μM): 16.7% | Percent Cytotoxicity (chromium release vs detergent-lysed cells) (EL-4 cells; 50 μM): 42.73% | Percent Cytotoxicity (chromium release vs detergent-lysed cells) (EL-4 cells; 100 μM): 82.35% | immediate cause of death at autopsy (mammary carcinoma): shock | outcome following the third injection (mammary carcinoma; one mouse): died almost immediately | viability: 0% | viability at 0.01 µM: 100% | viability at 0.1 µM: 69.6% | viability at 1 µM: 37.9% | viability at 5 µM: 1.5% | viability at 7.5 µM: 0.1% | LD50 (concentration for 50% reduction in 3H-hypoxanthine uptake) ([4]; 24-hour period, relative to untreated infected red blood cells): about 10 μM | viability at 0.01 µM ([5]; peptide concentration 0.01 μM): 100% | viability at 0.1 µM ([5]; peptide concentration 0.1 μM): 81.8% | viability at 0.5 µM ([5]; peptide concentration 0.5 μM): 65% | viability at 1 µM ([5]; peptide concentration 1.0 μM): 42.1% | viability at 5 µM ([5]; peptide concentration 5.0 μM): 35.2% | viability ([5]; peptide concentration 10. μM): 1.2% | viability ([5]; peptide concentration 50. μM): 0%

CN(C)[C@@H]1C(O)=C(C(N)=O)C(=O)[C@@]2(O)C(O)=C3C(=O)c4c(O)cccc4[C@@](C)(O)[C@H]3C[C@@H]12 [Tetracycline, tetracycline]
Concentration of Brucella abortus in spleen tissue (Brucella abortus [6]): 4.4 × 10^3 Number per gram of spleen

Cecropin B: naturally occurring potent bacteriolytic peptide obtainable from insects; sequence in Table 1 (KWKVFKKIEKMGRNIRNGIVKAGPAIAVLGEAKAL; ends and bridges not checked; UniProt P01508 27-61, looked up)
Results (growth of Brucella abortus) (Brucella abortus [7]): No growth | 3H-Hypoxanthine Uptake ([4]; 1 μM, P. falciparum 0.0625 PPRC): 380 cpm | 3H-Hypoxanthine Uptake ([4]; 1 μM, P. falciparum 0.125 PPRC): 565 cpm | 3H-Hypoxanthine Uptake ([4]; 1 μM, P. falciparum 0.25 PPRC): 1293 cpm | 3H-Hypoxanthine Uptake ([4]; 1 μM, P. falciparum 0.5 PPRC): 2860 cpm | 3H-Hypoxanthine Uptake ([4]; 20 μM, P. falciparum 0.0625 PPRC): 405 cpm | 3H-Hypoxanthine Uptake ([4]; 20 μM, P. falciparum 0.125 PPRC): 495 cpm | 3H-Hypoxanthine Uptake ([4]; 20 μM, P. falciparum 0.25 PPRC): 1066 cpm | 3H-Hypoxanthine Uptake ([4]; 20 μM, P. falciparum 0.5 PPRC): 2333 cpm | 3H-Hypoxanthine Uptake ([4]; 200 μM, P. falciparum 0.0625 PPRC): 25 cpm | 3H-Hypoxanthine Uptake ([4]; 200 μM, P. falciparum 0.125 PPRC): 20 cpm | 3H-Hypoxanthine Uptake ([4]; 200 μM, P. falciparum 0.25 PPRC): 40 cpm | 3H-Hypoxanthine Uptake ([4]; 200 μM, P. falciparum 0.5 PPRC): 50 cpm | Plate Count (Thousands) (Saccharomyces cerevisiae; 5 μM): 500 Thousands | Plate Count (Thousands) (Saccharomyces cerevisiae; 50 μM): 75 Thousands | Plate Count (Thousands) (Saccharomyces cerevisiae; 750 μM): 0 Thousands | growth of E. coli (plate counts) (E. coli E/2/64; 5 μM, 90 minutes at room temperature): no growth of E. coli | growth of E. coli (E. coli E/2/64; one nanomolar and one micromolar): positive E. coli growth

Lysozyme
LD50 [8]: >1000 µM | LD50 [9]: >1000 µM | LD50 [10]: >1000 µM | Viability (%) (Pseudomonas aeruginosa): 0.4% | Viability (%) (Pseudomonas aeruginosa; 0.01 µM): 100% | Viability (%) (Pseudomonas aeruginosa; 0.1 µM): 82.2% | Viability (%) (Pseudomonas aeruginosa; 1 µM): 52.1% | Viability (%) (Pseudomonas aeruginosa; 5 µM): 7.9% | Viability (%) (Pseudomonas aeruginosa; 7.5 µM): 0.6% | Viability (%) (S. intermedius 19930; 0.01 µM): 100% | Viability (%) (S. intermedius 19930; 0.1 µM): 100% | Viability (%) (S. intermedius 19930; 0.5 µM): 81.3% | Viability (%) (S. intermedius 19930; 1 µM): 53% | Viability (%) (S. intermedius 19930; 5 µM): 49.5% | LD50 (Pseudomonas solanacearum): >1000 µM

cecropin A
lytic activity compared with other lytic peptides (eucaryotes): about as lytically active as cecropin B and SB-37
